Here are results for eight compounds from paper PMC11324046, “Second-generation piperazine derivatives as promising radiation countermeasures” (RSC Medicinal Chemistry, 2024).

Holding throughout (format): cell-based
A short description of data set [1]: WST-1 proliferation assay, MOLT-4. The note with it: human, MOLT-4 cells (acute lymphoblastic leukemia), vs 0.1% DMSO control = 100%, mean ± standard deviation. The procedure: (§1) A thorough analysis of antiproliferative activity was performed across various cell culture types representing different histotypes: leukemia (Jurkat, MOLT-4), lung adenocarcinoma (A549), colorectal adenocarcinoma (HT-29), pancreatic carcinoma (PANC-1), breast adenocarcinoma (MCF-7), osteosarcoma (SAOS-2), and one non-cancerous cell line (fetal lung fibroblasts MRC-5). The cell lines were exposed to the newly synthesized compounds at a concentration of 100 μM for 48 h in a single-dose treatment. Changes in cell proliferation compared to the vehicle 0.1% dimethyl sulfoxide (DMSO) control were determined using the WST-1 assay, which is based on mitochondrial dehydrogenase metabolic activities. […] The overall cytotoxic activity of each compound was expressed as growth percent (GP) – the mean of the proliferation of all cell lines treated with the same compound.
(§2) Selected human tumor and non-tumor cell lines Jurkat (acute T-cell leukemia), MOLT-4 (acute lymphoblastic leukemia), A549 (lung carcinoma), HT-29 (colorectal adenocarcinoma), PANC-1 (pancreas epithelioid carcinoma), MCF-7 (breast adenocarcinoma), SAOS-2 (osteosarcoma) and MRC-5 (normal lung fibroblasts) were purchased from either American Type Culture Collection (ATCC; VA, USA) or Sigma-Aldrich (St. Louis, MO, USA) and cultured according to the provider's culture method guidelines. All cell lines were maintained at 37 °C in a humidified 5% carbon dioxide and 95% air incubator. Cells in the maximum range of either 10 passages for the adherent cell lines (A549, HT-29, PANC-1, MCF-7, SAOS-2, and MRC-5), or 20 passages for suspension cell lines (Jurkat, MOLT-4,) and in an exponential growth phase were used for this study. Screening of the antiproliferative effect and growth percent calculation were conducted as follows: each cell line was seeded at previously established optimal density (1–50 × 10^3 cells per well) in a 96-well plate (TPP, Trasadingen, Switzerland) and cells were allowed to settle overnight. Cells were treated for 48 h with compounds at a final concentration of 100 μM. At the end of the cultivation period, the WST-1 proliferation assay (Roche, Basel, Switzerland) was performed according to the manufacturer's protocol. The absorbance was measured at 440 nm using a Tecan Spark multimode microplate reader (Tecan, Mannedorf, Switzerland). Each value is the mean of three independent experiments and represents the percentage of proliferation (100% cell proliferation for 0.1% DMSO mock-treated control cells). The GP value was calculated for each compound tested. GP represents the mean of the percentage proliferation decrease of all cell lines treated with the same compound.
For orientation: Tetrazolium assays rely on reduction of a dye to a coloured formazan, in cell work by metabolically active cells.

Data set [2] in a line: WST-1 proliferation assay, SAOS-2. Particulars: human, SAOS-2 cells (osteosarcoma), vs 0.1% DMSO control = 100%, mean ± standard deviation. The procedure: as §1, §2
For data set [3], the system named is Whole blood from healthy human donors. Briefly: Dicentric chromosome assay (DCA). The note with it: 3 Gy gamma. The procedure:
The radioprotective effect of eight compounds was assessed using the cytogenetic method of DCA. DCA is known for its high sensitivity to radiation exposure and its specificity, and is thus considered a gold standard for biological dosimetry. It is also applicable to reveal the radioprotective potential of substances, as their effect is to protect DNA from forming dicentric chromosomes after IR exposure. This assay included six newly synthesized substances as well as amifostine (WR2721) and its active form (WR1065). WR2721 and WR1065 served as benchmarks, allowing us to measure the radioprotective effect of our compounds against these well-established radioprotectors. Whole blood from healthy human donors was utilized for DCA, and it was irradiated with 3 Gy gamma radiation after exposure to the tested compounds. Each experiment included irradiated and non-irradiated controls. The experiments were conducted at two different concentrations of the substances. For the newly synthesized compounds, 100 μM and an optimal non-toxic concentration which varied between 200–1000 μM were used. […] The results were interpreted as the number of dicentric chromosomes per cell.
To express the radioprotective effect the radioprotection factor (RF) was calculated as the […] (Table 2). RF expresses how many-fold the DC count in the sample decreased compared to the irradiated control.
Blood samples from healthy male donors were taken in heparinized tubes, with informed consent and the approval of a local ethics committee. Blood samples (1 ml) were treated with eight different substances (WR2721, WR1065, and 1–6) in two different concentrations. Non-treated irradiated and non-treated non-irradiated controls were included. All samples were exposed to a single dose of 3 Gy of gamma radiation (at the dose rate of 0.6 Gy min^−1, using the ^60Co Chisobalt, Chirana, Prague, Czech Republic). […] The dose of 3 Gy was selected to ensure a sufficient quantity of dicentric chromosomes in lymphocytes. Immediately after irradiation, the samples were placed in a humidified atmosphere with 5% CO2 at 37 °C for 30 min. Treated and irradiated blood samples were added to T-25 cultivation flasks containing 10 ml RPMI 1640 with 20% fetal bovine serum and 2% phytohaemagglutinin (all Gibco by Thermo Fisher Scientific, Waltham, MA, USA). Colcemid at a final concentration of 0.25 μg ml^−1 (Gibco by Thermo Fisher Scientific, Waltham, MA, USA) was added to each culture tube 48 h after culture initiation. Cells were cultivated for another 2 h and then harvested.
At the harvest time (total time 50 h), cell pellets obtained after centrifugation at 600 × g for 3 min were resuspended and treated with 10 ml of prewarmed 0.075 M solution of potassium chloride (Gibco by Thermo Fisher Scientific, Waltham, MA, USA) for 20 min. After another centrifugation, cells were treated three times with fixative solution consisting of 3 : 1 (v/v) methanol : acetic acid (penta Chemicals, Prague, Czech Republic). Fixed cells were dropped on ice-cold microscope slides, air-dried overnight, and stained with 5% Giemsa solution (P-Lab, Prague, Czech Republic) for 6 min. Prepared slides were evaluated using automated metaphase finding systems. The slides with metaphases were analyzed by Axio Imager 2 (Carl Zeiss Microscopy GmbH, Göttingen, Germany) and Metafer 4 software (MetaSystems Hard & Software GmbH, Altlußheim, Germany). At first, the images of the metaphases in lower magnification were acquired (MSearch TL mode). Following that, the images of good-quality metaphases in higher resolution were acquired (AutoCapt mode). The data obtained were analyzed manually (manual selection of good-quality metaphases and dicentric chromosome detection).

[4] abbreviates: 100 μM, 60 min pre-exposure, lower concentrations experiment.
The mark [5] stands for this setting: 500 μM (optimal non-toxic concentration), 60 min pre-exposure.
The mark [6] stands for this setting: 10 μM, 30 min pre-exposure, lower concentrations experiment.
[7] abbreviates: 100 μM, 30 min pre-exposure, higher concentrations experiment.

For orientation: viability means a read-out of living cells in per cent, often relative to untreated cells. Take `OCCN1CCN(CC(O)COc2ccc(F)cc2)CC1` (stereo not shown) [Compound 4, 1-(4-(2-Hydroxyethyl)piperazin-1-yl)-3-(4-fluorophenoxy)propan-2-ol]: the values for the viability at 48 h, 100 µM in data set [1] and in data set [2] were 102 ± 16% and 102 ± 6%, respectively. The “RF (radioprotection factor)” value in data set [3] (setting [4]) was found to be 1.65.
In the case of `OCCN1CCN(CC(O)COc2cccc(Cl)c2)CC1` (stereo not shown) [Compound 6, 1-(4-(2-Hydroxyethyl)piperazin-1-yl)-3-(3-chlorophenoxy)propan-2-ol], the viability at 48 h, 100 µM in data set [1] stood at 89 ± 16%; in data set [2] it was 120 ± 26%. The “RF (radioprotection factor)” value in data set [3] (setting [4]) is recorded as 2.1; in data set [3] (setting [5]) it was 2.69.
As for `O=[N+]([O-])c1cc(OCC(O)CN2CCN(CCO)CC2)ccc1Cl` (stereo not shown) [Compound 5, 1-(4-(2-Hydroxyethyl)piperazin-1-yl)-3-(4-chloro-3-nitrophenoxy)propan-2-ol], the viability at 48 h, 100 µM worked out at 84 ± 8% in data set [1] and 89 ± 3% in data set [2]. The “RF (radioprotection factor)” value in data set [3] (setting [4]) came to 1.65; in data set [3] (200 μM (optimal non-toxic concentration), 60 min pre-exposure), 1.91.
In the case of `COc1cc([N+](=O)[O-])ccc1OCC(O)CN1CCN(CCO)CC1` (stereo not shown) [Compound 1, 1-(4-(2-Hydroxyethyl)piperazin-1-yl)-3-(2-methoxy-4-nitrophenoxy)propan-2-ol], the viability at 48 h, 100 µM in data set [1] worked out at 92 ± 8%; in data set [2] it was 101 ± 16%. Further, the entries for the “RF (radioprotection factor)” value in data set [3] (setting [4]) and in data set [3] (setting [5]) were 1.42 and 1.97, respectively.
Consider `NCCCNCCS` [WR1065, reference compound], for which the viability at 48 h, 100 µM in data set [1] was 3 ± 3%; in data set [2] it was 7 ± 4%. Also, the entries for the “RF (radioprotection factor)” value in data set [3] (setting [6]) and in data set [3] (setting [7]) were 1.59 and 1.96, respectively.
For `O=[N+]([O-])c1ccc(OCC(O)CN2CCN(CCO)CC2)c(F)c1` (stereo not shown) [Compound 3, 1-(4-(2-Hydroxyethyl)piperazin-1-yl)-3-(2-fluoro-4-nitrophenoxy)propan-2-ol], the figures for the viability at 48 h, 100 µM in data set [1] and in data set [2] were 84 ± 11% and 92 ± 14%, respectively. The results for the “RF (radioprotection factor)” value in data set [3] (setting [4]) and in data set [3] (setting [5]) were 2.43 and 4.16, respectively.
On the same counts, the results for `COc1ccc(OCC(O)CN2CCN(CCO)CC2)c([N+](=O)[O-])c1` (stereo not shown) [Compound 2, 1-(4-(2-Hydroxyethyl)piperazin-1-yl)-3-(4-methoxy-2-nitrophenoxy)propan-2-ol] are 90 ± 7%, 103 ± 9%, 1.23 and 1.97.
Consider `NCCCNCCSP(=O)(O)O` [WR2721, amifostine, reference compound], for which the figures for the viability at 48 h, 100 µM in data set [1] and in data set [2] were 71 ± 21% and 9 ± 3%, respectively. Further, the “RF (radioprotection factor)” value in data set [3] (setting [6]) stood at 1.33; in data set [3] (setting [7]), 1.45.
